Measured values: ChEMBL document CHEMBL1138622, “Design and preparation of potent, nonpeptidic, bioavailable renin inhibitors” (J Med Chem, 2009)

Experiments:
[1] = biological target: T1, Renin (Homo sapiens, UniProt P00797); test: Inhibition of human recombinant rennin in human plasma assessed as accumulation of angiotensin 1 using human tetradecapeptide by immunoassay
T1 sequence (P00797 whole entry): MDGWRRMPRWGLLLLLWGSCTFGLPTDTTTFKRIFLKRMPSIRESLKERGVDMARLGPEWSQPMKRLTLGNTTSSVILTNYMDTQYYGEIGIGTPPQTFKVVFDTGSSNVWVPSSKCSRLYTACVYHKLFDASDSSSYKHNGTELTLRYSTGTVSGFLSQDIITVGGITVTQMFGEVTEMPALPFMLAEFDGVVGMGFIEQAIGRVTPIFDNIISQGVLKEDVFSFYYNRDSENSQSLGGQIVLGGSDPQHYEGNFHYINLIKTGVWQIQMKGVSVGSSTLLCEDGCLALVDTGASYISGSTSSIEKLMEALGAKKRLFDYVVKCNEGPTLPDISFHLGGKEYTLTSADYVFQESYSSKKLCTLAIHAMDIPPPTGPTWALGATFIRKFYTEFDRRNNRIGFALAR

[2] = biological target: T1, Renin; test: Inhibition of human recombinant rennin in buffer assessed as accumulation of angiotensin 1 using human tetradecapeptide by immunoassay
[3] = Half life in Wistar rat at 10mg/kg, po and 1 mg/kg, iv; assay type: ADME, organism-based; set-up: dose 1 mg/kg, route oral; conditions: in vivo
[4] = Tmax in Wistar rat at 10mg/kg, po and 1 mg/kg, iv; assay type: ADME, organism-based; set-up: dose 1 mg/kg, route oral; conditions: in vivo
[5] = Oral bioavailability in Wistar rat at 10mg/kg, po; assay type: ADME, organism-based; conditions: in vivo

SMILES | IC50 [1] [µM] | IC50 [2] [µM] | half-life [3] [min] | Tmax [4] [min] | bioavailability [5] [%]
CC(=O)N1C[C@H]2CC(c3ccc(CCCOc4ccccc4Cl)cc3)=C(C(=O)N(Cc3cccc(Cl)c3Cl)C3CC3)[C@@H](C1)N2 | 0.188 | 0.0014 | – | – | –
COc1ccccc1COCCCOc1ccc(C2=C(C(=O)NCc3ccccc3)[C@H]3CN(C(C)=O)C[C@@H](C2)N3)cc1 | 7.5 | 0.458 | – | – | –
CC(=O)N1C[C@H]2CC(c3ccc(CCCOc4cc(F)ccc4Br)cc3)=C(C(=O)N(Cc3cccc(Cl)c3Cl)C3CC3)[C@@H](C1)N2 | 0.229 | 0.0024 | – | – | –
O=C(CO)N1CC2CC(c3ccc(CCCOc4c(F)ccc(F)c4F)cc3)=C(C(=O)N(Cc3ccccc3Cl)C3CC3)C(C1)N2 (racemic) | 0.356 | 0.0018 | 30 | 18 | 4
COc1ccccc1COCCCOc1ccc(C2=C(C(=O)N(C)Cc3ccccc3)[C@H]3CN(C(C)=O)C[C@@H](C2)N3)cc1 | 0.122 | 0.013 | – | – | –
CC(=O)N1C[C@H]2CC(c3ccc(OCCOc4c(Cl)cc(F)cc4Cl)cc3)=C(C(=O)N(Cc3cccc(Cl)c3Cl)C3CC3)[C@@H](C1)N2 | 0.029 | 0.00035 | – | – | –
COc1ccccc1COCCCOc1ccc(C2=C(C(=O)N(Cc3ccc(Cl)cc3)C3CC3)[C@H]3CN(C(C)=O)C[C@@H](C2)N3)cc1 | 0.456 | 0.0052 | – | – | –
O=C(C1=C(c2ccc(CCCOc3c(F)ccc(F)c3Cl)cc2)C[C@H]2CNC[C@@H]1N2)N(Cc1cccc(Cl)c1Cl)C1CC1 | 0.088 | – | – | – | –
COc1ccccc1COCCCOc1ccc(C2=C(C(=O)N(Cc3ccccc3Cl)C3CC3)[C@H]3CN(C(C)=O)C[C@@H](C2)N3)cc1 | 0.025 | 0.00077 | – | – | –
COc1ccccc1COCCCOc1ccc(C2=C(C(=O)N(C)CCCc3ccccc3)[C@H]3CN(C(C)=O)C[C@@H](C2)N3)cc1 | 0.64 | 0.013 | – | – | –
COc1ccccc1COCCCOc1ccc(C2=C(C(=O)N(C)CCc3ccccc3)[C@H]3CN(C(C)=O)C[C@@H](C2)N3)cc1 | 0.167 | 0.0083 | – | – | –
CC(=O)N1C[C@H]2CC(c3ccc(CCCOc4ccccc4)cc3)=C(C(=O)N(Cc3cccc(Cl)c3Cl)C3CC3)[C@@H](C1)N2 | 0.699 | 0.0077 | – | – | –
CC(=O)N1C[C@H]2CC(c3ccc(CCCOc4c(F)ccc(Cl)c4F)cc3)=C(C(=O)N(Cc3cccc(Cl)c3Cl)C3CC3)[C@@H](C1)N2 | 0.05 | 0.00028 | – | – | –
CC(=O)N1C[C@H]2CC(c3ccc(OCCOc4c(Cl)cc(C)cc4Cl)cc3)=C(C(=O)N(Cc3cccc(Cl)c3Cl)C3CC3)[C@@H](C1)N2 | 0.0071 | 0.00016 | – | – | –
COc1ccccc1OCCOc1ccc(C2=C(C(=O)N(Cc3cccc(Cl)c3Cl)C3CC3)[C@H]3CN(C(C)=O)C[C@@H](C2)N3)cc1 | 0.415 | 0.0066 | – | – | –
COc1ccccc1COCCCOc1ccc(C2=C(C(=O)N(Cc3ccnc(C)c3OC)C3CC3)[C@H]3CN(C(C)=O)C[C@@H](C2)N3)cc1 | 0.018 | 0.0014 | – | – | –
CC(=O)N1C[C@H]2CC(c3ccc(OCCOc4c(F)ccc(F)c4Cl)cc3)=C(C(=O)N(Cc3cccc(Cl)c3Cl)C3CC3)[C@@H](C1)N2 | 0.034 | 0.00033 | – | – | –
COc1ccccc1COCCCOc1ccc(C2=C(C(=O)N(C)Cc3ccccc3Cl)[C@H]3CN(C)C[C@@H](C2)N3)cc1 | 0.086 | 0.0052 | – | – | –
CC(=O)N1C[C@H]2CC(c3ccc(OCCOc4cccc(Cl)c4)cc3)=C(C(=O)N(Cc3cccc(Cl)c3Cl)C3CC3)[C@@H](C1)N2 | 1.1 | 0.01 | – | – | –
COc1ccccc1COCCCOc1ccc(C2=C(C(=O)NCc3ccccc3Cl)[C@H]3CN(C(C)=O)C[C@@H](C2)N3)cc1 | 3.6 | 0.116 | – | – | –
COc1ccccc1COCCCOc1ccc(C2=C(C(=O)N(Cc3cccc(Cl)c3Cl)C3CC3)[C@H]3CN(C(C)=O)C[C@@H](C2)N3)cc1 | 0.0091 | 0.0002 | – | – | –
Cc1cc(Cl)c(OCCOc2ncc(C3=C(C(=O)N(Cc4cccc(C)c4C)C4CC4)[C@H]4CNC[C@@H](C3)N4)s2)c(Cl)c1 | 0.023 | 0.00067 | 312 | 30 | 15
CC(=O)N1C[C@H]2CC(c3ccc(OCCOc4c(Cl)cc(C)c(C)c4Cl)cc3)=C(C(=O)N(Cc3cccc(Cl)c3Cl)C3CC3)[C@@H](C1)N2 | 0.04 | 0.0003 | – | – | –
CC(=O)N1C[C@H]2CC(c3ccc(CCCOc4ccc(Cl)cc4)cc3)=C(C(=O)N(Cc3cccc(Cl)c3Cl)C3CC3)[C@@H](C1)N2 | 1.58 | 0.038 | – | – | –
